# Patent US20230132582A1, “NOVEL USE OF ASPIRIN COMPOUND IN INCREASING NUCLEIC ACID EXPRESSION” (priority 2020, published 2023)
# Assays:
# [1] = system: expression of luciferase from AAV9-Lxp3.3-Gluc; assay: Luciferase expression after AAV9-Lxp3.3-Gluc injection in aspirin-treated mice (Example 3); assay type: in vivo, C57BL/6J mice
# Protocol: (§1) Blood samples of mice were collected by retro-orbital bleeding. Half of the volume of blood samples was added with sodium citrate at a ratio of 1:9 for anticoagulation, mixed, centrifuged within 30 minutes (6000 rpm, 5 mins), and the supernatant was collected as the mouse plasma, for detection of the expression of Gluc. The remaining blood sample was left at room temperature for 2 hours to separate the serum, centrifuged at 6000 rpm for 15 min, and the supernatant was collected as the mouse serum sample. The contents of IFN-α and IFN-β were determined by using Mouse IFN-β ELISA kit (720131-2, Shanghai Mlbio Co., Ltd.), LEGEND MAX™ Mouse IFN-β ELISA Kit (439407, BioLegend), and Mouse IFN-α ELISA kit (706291-2, Shanghai Mlbio Co., Ltd.).
# (§2) Coelenterazine h (40906ES02, Shanghai Yeasen Biotech Co., Ltd.) buffer was prepared first: to 500 mL of ultra-pure water was added 29.72 g of sodium ascorbate, and then 50 mL of Tris-HCl (1 mol/L, pH 7.4). […] of the above working solution is added to a […], and the relative light unit (RLU) was detected with a Synergy H1 multifunctional microplate reader.
# (§3) The injection dose of 50 mg/kg aspirin was used in further study of AAV-mediated expression of exogenous genes by three different AAV serotypes. […] Blood sample were collected and expression level of luciferase was detected following the same methods as described in Example 2.
# [2] = system: IFN-β; assay: Serum IFN-β ELISA after AAV8, AAV9 or AAV843 injection in aspirin-treated mice (Example 4); assay type: in vivo, C57BL/6J mice
# Protocol: as §1
# (§4) The injection dose of 50 mg/kg aspirin was used in further study of AAV-mediated expression of exogenous genes by three different AAV serotypes. The study design was similar to that of Example 2. Briefly, for each AAV serotype (i.e., AAV8-Lxp3.3-Gluc, AAV9-Lxp3.3-Gluc, or AAV843-Lxp3.3-Gluc), male C57BL/6J mice (purchased from Shanghai Jiesijie Experimental Animals Co., Ltd.) (n=4) with an average weight of 20 g were divided into two groups. One group was injected with aspirin at 50 mg/kg for 7 consecutive days, and the other group was injected with 5% castor oil (in PBS buffer (catalogue number: 02-024-1ACS, BI)) as a control. On Day 8, 5×10^12 vg/kg of AAV8-Lxp3.3-Gluc, AAV9-Lxp3.3-Gluc, or AAV843-Lxp3.3-Gluc virus (diluted in 150-200 μl PBS) was delivered to each mouse by tail vein injection. Blood sample were collected and expression level of luciferase was detected following the same methods as described in Example 2.
# (§5) In the study described in Example 3, the level of IFN-α and IFN-β were determined by using Mouse IFN-β ELISA kit (720131-2, Shanghai Mlbio Co., Ltd.), LEGEND MAX™ Mouse IFN-β ELISA Kit (439407, BioLegend), and Mouse IFN-α ELISA kit (706291-2, Shanghai Mlbio Co., Ltd.) according to the user's manual.
# [3] = system: Gluc expression from AAV9-CB-Gluc in brain; assay: Gluc mRNA and enzymatic activity in brain after AAV9-CB-Gluc with aspirin (Example 6); assay type: in vivo, mice; conditions: for enzymatic activity level of Gluc, up-regulation vs non-treatment group: p<0.01 (FIG. 7B)
# Protocol: (§6) Expression of exogenous gene was detected in mice either pre-treated with Aspirin, or co-administered with Aspirin. AAV9-CB-Gluc was prepared according to methods provided in Example 1, except that nucleic acid sequence for CB promoter (see SEQ ID NO: 3) was used. In brief, Aspirin was pre-administrated to a group of mice at 50 mg/kg by intraperitoneal injection for 7 days, followed by administration of AAV9-CB-Gluc (5×10^13 vg/kg) at day 8. In comparison, a group of mice without pre-administration of Aspirin was administrated with Aspirin at 50 mg/kg simultaneously in combination with AAV9-CB-Gluc. 15 days after the AAV9-CB-Gluc administration, the mice were sacrificed, and brain and liver were collected for determination of expression Gluc.
# [4] = system: Gluc expression from AAV9-CB-Gluc in liver; assay: Gluc mRNA and enzymatic activity in liver after AAV9-CB-Gluc with aspirin (Example 6); assay type: in vivo, mice
# Protocol: as §6
# [5] = system: expression of luciferase from AAV843-Lxp3.3-Gluc; assay: Luciferase expression after AAV843-Lxp3.3-Gluc injection in aspirin-treated mice (Example 3); assay type: in vivo, C57BL/6J mice
# Protocol: as §1, §2, §3
# [6] = system: expression of luciferase from AAV9-Lxp3.3-Gluc virus; assay: AAV9-mediated luciferase (Gluc) expression in plasma of mice pre-treated with aspirin at different doses (Example 2); assay type: in vivo, C57BL/6J mice
# Protocol: (§7) Male C57BL/6J mice (purchased from Shanghai Jiesijie Experimental Animals Co., Ltd.) (n=4) with an average weight of 20 g were divided into six groups. Aspirin was used for intraperitoneal injection for 7 consecutive days (Day −7 to Day −1), at doses of 1 mg/kg, 15 mg/kg, 30 mg/kg, 50 mg/kg, 100 mg/kg, respectively, to five groups of mice. The sixth group was injected with 5% castor oil (in PBS buffer (catalogue number: 02-024-1ACS, BI)) as a control. On Day 0, AAV9-Lxp3.3-Gluc virus was injected intravenously (5×10^12 vg/kg) to each mouse in every group, and expression of luciferase was detected from Day 1 onwards.
# Blood samples of mice were collected by retro-orbital bleeding. […] The contents of IFN-α and IFN-β were determined by using Mouse IFN-β ELISA kit (720131-2, Shanghai Mlbio Co., Ltd.), LEGEND MAX™ Mouse IFN-β ELISA Kit (439407, BioLegend), and Mouse IFN-α ELISA kit (706291-2, Shanghai Mlbio Co., Ltd.).
# as §2
# [7] = system: IFN-α; assay: Serum IFN-α ELISA after AAV9 injection with aspirin at different doses (Example 2); assay type: in vivo, C57BL/6J mice; conditions: Day 3 post AAV9 injection, vs control group (FIG. 2)
# Protocol: as §7, §1
# [8] = system: IFN-α; assay: Serum IFN-α ELISA after AAV8, AAV9 or AAV843 injection in aspirin-treated mice (Example 4); assay type: in vivo, C57BL/6J mice
# Protocol: as §1, §4, §5
# [9] = system: IDS enzyme activity in brain (AAV9-CB-IDS); assay: IDS enzyme activity in brain of MPSII mice after AAV9-CB-IDS with aspirin pre-treatment (Example 7); assay type: in vivo, B6N.Cg-Ids^tm1Muen/J mice (MPSII model)
# Protocol: The effects of aspirin on improving the expression of therapeutic transgene in brain were determined. AAV9-CB-IDS vector were produced using methods described in Example 1, except that iduronate 2-sulfatase (IDS) gene expression cassette was inserted between the AAV ITRs. The gene encoding IDS was provided in SEQ ID NO: 7 and the protein sequence of IDS was provided in SEQ ID NO: 11. […] A group of wild-type control mice was used as control. The AAV9-CB-IDS vector for treating MPSII was administrated as described in Example 1, at a dose of 3×10^13 vg/kg (i.e. 3E13 group) or 1×10^14 vg/kg (i.e. 1E14 group) to mice pre-treated with aspirin injection. One month after the AAV9-CB-IDS injection, the IDS enzyme activity was detected in brain (FIG. 8).
# [10] = system: expression of luciferase from AAV8-Lxp3.3-Gluc; assay: Luciferase expression after AAV8-Lxp3.3-Gluc injection in aspirin-treated mice (Example 3); assay type: in vivo, C57BL/6J mice
# Protocol: as §1, §2, §3
# [11] = system: expression level of the transgene (AAV); assay: Co-administration of AAV and aspirin, transgene expression (preliminary); assay type: in vivo; conditions: co-administration of AAV and aspirin in one formulation or separate formulations at the same time; preliminary results
# Text: Studies have been conducted for co-administration of AAV and aspirin either in one formulation or in separate formulations but at the same time.
structure (smiles),measurement,setting,value
"CC(=O)Oc1ccccc1C(=O)O [aspirin, Acetylsalicylic acid]",transduction in vivo (expression of luciferase),"[1]; aspirin 50 mg/kg 7 consecutive days, AAV9-Lxp3.3-Gluc 5×10^12 vg/kg tail vein, vs control (FIG. 3B)",remarkably promote
same,day of peak expression of luciferase after AAV injection,"[1]; aspirin 50 mg/kg 7 days, AAV9-Lxp3.3-Gluc, control groups also peaked on Day 15",15 days
same,IFN-β level in the control group versus the aspirin treatment group,"[2]; after AAV8 injection, aspirin 50 mg/kg 7 days (FIG. 4B)",always significantly higher than that in the aspirin treatment group
same,IFN-β level,"[2]; after AAV9 injection, aspirin 50 mg/kg 7 days, Day 1 to Day 31, significantly different from control Day 1 to Day 23 (FIG. 5B)",maintained at a low level
same,IFN-β level,"[2]; after AAV843 injection, Day 31, aspirin treatment vs control group (FIG. 6B)",no significant difference
same,IFN-β level,"[2]; after AAV843 injection, aspirin 50 mg/kg 7 days, vs control group, before Day 31 (FIG. 6B)",significantly lower than those in the control group
same,"mRNA level of Gluc, up-regulation vs non-treatment group","[3]; aspirin 50 mg/kg simultaneously with AAV9-CB-Gluc, 15 days after AAV (FIG. 7A)",2.95 fold
same,"enzymatic activity level of Gluc, up-regulation vs non-treatment group","[3]; aspirin 50 mg/kg simultaneously with AAV9-CB-Gluc, 15 days after AAV",3.55 fold
same,"mRNA level of Gluc, up-regulation vs non-treatment group","[3]; pre-injection of aspirin 50 mg/kg i.p. 7 days, AAV9-CB-Gluc 5×10^13 vg/kg day 8, 15 days after AAV, p<0.01 (FIG. 7A)",5.5 fold
same,"enzymatic activity level of Gluc, up-regulation vs non-treatment group","[3]; pre-injection of aspirin 50 mg/kg i.p. 7 days, AAV9-CB-Gluc 5×10^13 vg/kg day 8, 15 days after AAV",7.13 fold
same,mRNA level of Gluc vs non-treatment group,[4]; aspirin 50 mg/kg simultaneously with AAV9-CB-Gluc (FIG. 7C),even lower than that of the non-treatment group
same,level of enzymatic activity of Gluc vs non-treatment group,[4]; aspirin 50 mg/kg simultaneously with AAV9-CB-Gluc (FIG. 7D),not significantly different
same,"level of enzymatic activity of Gluc, up-regulation vs non-treatment group","[4]; pre-injection of aspirin 50 mg/kg i.p. 7 days, AAV9-CB-Gluc 5×10^13 vg/kg, p<0.01 (FIG. 7D)",1.95 fold
same,"level of mRNA of Gluc, up-regulation vs non-treatment group","[4]; pre-injection of aspirin 50 mg/kg i.p. 7 days, AAV9-CB-Gluc 5×10^13 vg/kg, p<0.05 (FIG. 7C)",1.43 fold
same,transduction in vivo (expression of luciferase),"[5]; aspirin 50 mg/kg 7 consecutive days, AAV843-Lxp3.3-Gluc 5×10^12 vg/kg tail vein, vs control (FIG. 3C)",remarkably promote
same,day of peak expression of luciferase after AAV injection,"[5]; aspirin 50 mg/kg 7 days, AAV843-Lxp3.3-Gluc, control groups also peaked on Day 15",15 days
same,expression level of luciferase,"[6]; 100 mg/kg of aspirin i.p. 7 days before AAV9-Lxp3.3-Gluc 5×10^12 vg/kg i.v., compared with other doses (FIG. 1)",highest expression level
same,expression level of luciferase,"[6]; aspirin i.p. 7 consecutive days at 1, 15, 30, 50, 100 mg/kg before AAV9-Lxp3.3-Gluc 5×10^12 vg/kg i.v., comparison across dose groups (FIG. 1)",dose dependent increase
same,level of IFN-α on Day 3,[7]; aspirin 50 mg/kg,significantly lower
same,level of IFN-α on Day 3,[7]; aspirin 100 mg/kg,significantly lower
same,IFN-α level,"[8]; after AAV8 injection, aspirin 50 mg/kg 7 days, control significantly higher except Day 31 (FIG. 4A)",maintained at a relatively low level
same,IFN-α level,"[8]; after AAV9 injection, aspirin 50 mg/kg 7 days, vs control group (FIG. 5A)",significantly lower than that in the control group
same,IFN-α level,"[8]; after AAV843 injection, Day 31, aspirin treatment vs control group (FIG. 6A)",no significant difference
same,IFN-α level,"[8]; after AAV843 injection, aspirin 50 mg/kg 7 days, vs control group, before Day 31 (FIG. 6A)",significantly lower than those in the control group
same,IDS enzyme activity in brain vs wild type mice group,"[9]; aspirin pre-treatment (50 mg/kg) + AAV9-CB-IDS 3×10^13 vg/kg, one month after injection (FIG. 8)",even higher than that of the wild type mice group
same,IDS enzyme activity in brain vs group receiving no aspirin but only AAV9-CB-IDS,"[9]; aspirin pre-treatment + AAV9-CB-IDS 3×10^13 vg/kg vs AAV9-CB-IDS alone at 3×10^13 vg/kg (p<0.05) or 10^14 vg/kg, one month (FIG. 8)",significantly higher
same,transduction in vivo (expression of luciferase),"[10]; aspirin 50 mg/kg 7 consecutive days, AAV8-Lxp3.3-Gluc 5×10^12 vg/kg tail vein, vs control (FIG. 3A)",remarkably promote
same,day of peak expression of luciferase after AAV injection,"[10]; aspirin 50 mg/kg 7 days, AAV8-Lxp3.3-Gluc, control groups also peaked on Day 15",15 days
same,expression level of the transgene,[11],increase the expression level of the transgene
